Assay results reported in patent US20060211755A1, “3-oxo-1, 3-dihydro-indazole-2-carboxylic acid amide derivatives as phospholipase inhibitors” (Eli Lilly and Company Patent Division, priority 2003, published 2006).

The compounds below were run against T1, Recombinant Hepatic Lipase (Homo sapiens, UniProt P11150) (assay: Hepatic Lipase Phospholipase Assay). Conditions: ThioPEG substrate, DTNB, 37° C., 10 min preincubation; read-out: Hepatic Lipase Inhibition IC50.
T1 sequence (P11150 23-499): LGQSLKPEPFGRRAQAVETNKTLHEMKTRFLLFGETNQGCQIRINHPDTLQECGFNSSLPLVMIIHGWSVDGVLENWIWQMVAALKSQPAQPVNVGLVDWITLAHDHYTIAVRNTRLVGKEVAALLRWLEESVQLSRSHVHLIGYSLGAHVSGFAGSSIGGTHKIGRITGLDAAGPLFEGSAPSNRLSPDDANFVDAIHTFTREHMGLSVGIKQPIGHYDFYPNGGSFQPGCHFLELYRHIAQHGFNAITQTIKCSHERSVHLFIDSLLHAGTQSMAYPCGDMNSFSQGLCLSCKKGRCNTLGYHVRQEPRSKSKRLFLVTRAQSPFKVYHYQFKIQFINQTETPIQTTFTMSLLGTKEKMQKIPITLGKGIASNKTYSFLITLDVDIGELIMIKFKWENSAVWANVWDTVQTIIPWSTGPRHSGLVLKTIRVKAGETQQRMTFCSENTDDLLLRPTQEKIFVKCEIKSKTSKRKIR
Assay type: biochemical
Description: Hepatic Lipase Phospholipase Assay
Efficacy was determined by testing various compounds of the invention in a hepatic lipase assay discussed below, and disclosed in U.S. patent application Ser. No. 09/609,871 filed Jul. 3, 2000 incorporated herein by reference in its entirety for U.S. Patent office purposes.
• Substrate Buffer A: 100 mM Hepes, pH 8.3 at 37° C. • Substrate Buffer B: 100 mM Hepes, pH 8.3 at 37° C. with 6.83 mM Triton X100 • ThioPEG: Molecular wt. of 540 • Recombinant Hepatic Lipase • Thiophospholipid: about 0.42 mM thiophospholipid in chloroform • DTNB Solution: about […] DTNB in DMSO (dimethyl sulfoxide) Hepes Buffer A
For Hepes Buffer A, there is 2.4 g Hepes/100 mL water. Therefore 36 grams of Hepes is dissolved in 1500 mL of water. The mix solution's pH is adjusted to pH 8.3 at 37° C. and brought up to 1500 mL with water. 500 mL of Buffer A is retained for the Protein Buffer.
To the remaining 1000 mL of Hepes Buffer A, 4.49 g of Triton X-100 is added and then the combination mixed on a stir plate. It is optimal that stock Buffer A not be too cold or Triton X-100 will take a long time to go into solution
For 0.42 mM substrate stock, use 0.227 mg of thioPEG/mL of Substrate Buffer B. Approximately 20 mg of sn-1 thiol substituted. Phosphatidyl Ethylene Glycol (see Examples for preparation method) is weighed into a vial, such as a scintillation vial. Enough chloroform should be added to make a 2.043 mg/mL solution. Sonicate the solution briefly until well dissolved. Next, pipette 1 mL of chloroform/substrate solution into each scintillation vial. This should give enough substrate for one full 96 well plate. Each vial is dried with nitrogen until solvent removed, swirling each vial simultaneously such that a thin film of substrate will be easily reconstituted in each buffer. Each vial is then frozen.
Daily stock preparation is performed for 9 mL of substrate (one microtiter plate). On the day of the assay, the substrate vial is removed from the freezer and combined with 9 mL of pre-warmed (37° C.) substrate buffer (the final concentration is 0.227 mg/mL). Place the buffer in a 37° C. water bath. Sonicate for 5 minutes or vortex until solution is clear before use.
The enzyme is stored at −80° C. in 100 or 50 μL portions. A 0.406 mg/mL recombinant hepatic lipase stock requires a 50-fold dilution. Therefore, to a 50 μL or 100 μL enzyme aliquot, 2450 μL or 4900 μL, respectively, of substrate Buffer A (protein buffer) should be added. The enzyme should then be stored on ice until ready to use. The protein concentration of enzyme is about 0.406 mg/mL.
To make a 20 mg/mL stock solution, 2-3 mg of DTNB is weighed and then mixed with an appropriate amount of 100% DMSO (dimethyl sulfoxide) to make the desired concentration. This mixture is sonicated for five minutes.
The above solution should be diluted 10 fold with substrate Buffer B (concentration now 2 mg/mL). Then to the thioPEG substrate solution, add 60 μl of dilute DTNB per mL of thioPEG substrate solution. Thus for 9 mL of substrate, 540 microliters of dilute DTNB (final concentration in substrate solution=0.11 mg/mL).
The test compound is dissolved in pure DMSO at […]. As shown below in Table 2, assay concentrations are 10, 1, 0.1, 0.33, 0.011, 0.0037, 0.0012 and 0.00041 μM.
Using a spectrometer, DTNB is used as a thiol coloring reagent with an incubator temperature of 37° C. Substrate Buffer B is placed in a 37° C. water bath to pre-warm. […]
`CCCCCNC(=O)n1[nH]c2ccccc2c1=O` [drawing 15] showed an IC50 of 67.2 ± 3.2 nM.
`CCCCNC(=O)n1c(=O)c2ccccc2n1C` was tested, and the IC50 was 19 ± 0.4 nM.
Compound `CCCCNC(=O)n1[nH]c2ccccc2c1=O` has an IC50 of 368 ± 15 nM.
Work on `CCCCCNC(=O)n1c(=O)c2ccccc2n1CCC` yielded an IC50 of 59.2 ± 1.1 nM.
In the case of `CCCCCNC(=O)n1c(=O)c2ccccc2n1CCc1ccccc1`, the IC50 is reported as 97.1 ± 1 nM.

Each compound was assayed against T2, endothelial lipase (EL) (Homo sapiens, UniProt Q9Y5X9) (assay: Endothelial Lipase Inhibition (Thio PEG substrate, conditioned media)). Conditions: EL expressed from AV12 cells, 37° C., average of 3 experiments.
T2 construct: made in house; host or cells: AV12 cells (conditioned media, non-purified)
T2 sequence (Q9Y5X9 21-500): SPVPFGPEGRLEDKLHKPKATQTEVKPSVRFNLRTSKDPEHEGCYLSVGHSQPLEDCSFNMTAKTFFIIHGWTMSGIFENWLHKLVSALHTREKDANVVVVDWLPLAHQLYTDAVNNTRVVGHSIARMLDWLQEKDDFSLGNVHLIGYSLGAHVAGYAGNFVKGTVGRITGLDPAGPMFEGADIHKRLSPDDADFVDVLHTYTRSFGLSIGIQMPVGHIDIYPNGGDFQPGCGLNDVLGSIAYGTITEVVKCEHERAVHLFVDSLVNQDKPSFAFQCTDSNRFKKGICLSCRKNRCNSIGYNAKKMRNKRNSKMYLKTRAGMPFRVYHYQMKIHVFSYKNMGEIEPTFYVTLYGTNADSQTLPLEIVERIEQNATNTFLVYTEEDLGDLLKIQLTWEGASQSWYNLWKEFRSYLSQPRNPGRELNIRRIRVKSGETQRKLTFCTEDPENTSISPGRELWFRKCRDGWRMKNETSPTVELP
Assay type: biochemical
Description: Methods for Characterization of Endothelial Lipase Activity
Hepatic lipase (HL) and endothelial lipase (EL) were expressed from AV12 cells. Aliquots from one day's collection of media were stored at −70° C. Activity was measured for both enzymes in conditioned media, (non-purified) where they were tested on the same plate with Thio PEG substrate (0.06 mol fraction, 7.24 mM total lipid), at 37° C. for 30 minutes. […] The OD for EL at 1× was 6.029. Therefore, when HL was used in studies where it was compared to EL, the HL was at 0.25× and EL was used at 1×. All experiments were done in triplicate with enzyme from conditioned media.
Assay conditions of assay were as follows. Both substrates for EL were run at 0.03 mol fraction, 10 mM total lipid. They were dissolved in 100 mM Hepes with 9.95 mM TX100. Both substrates for HL were run at 0.06 mol fraction and 7.25 mM total lipid. They were dissolved in 100 mM Hepes with 6.83 mM Triton X100. The EL enzyme was used at 1× and the HL enzyme was used at 0.25×. The order of addition was as follows: 10 μL of 10% DMSO, 80 μL of substrate and 10 μL of enzyme. The DMSO and substrate were incubated for 10 minutes at 37° C. before the addition of the enzyme. DTNB was added to the substrate prior to addition to the well at 0.096 mg/mL final plate. concentration. The experiments were performed 3 times. Data represents an average of these.
Several compounds were tested with HL and EL to determine their ability to inhibit these enzymes. Conditions of the assay were as mentioned in the previous paragraph except for the order of addition. In these experiments, the order of addition was 10 μL of drug/control, 10 μL of enzyme followed by a 10 minute incubation at 37° C. This was followed by the addition of the 80 μL of Thio PEG substrate containing DTNB. Each experiment was performed 3 times. Data represents an average.
`O=C(NCc1csc2ccccc12)n1[nH]c2ccccc2c1=O` showed an IC50 of 13.2 ± 2.83 nM.
`O=C(NCc1ccccc1)n1[nH]c2ccccc2c1=O` gave an IC50 of 73.8 ± 26.2 nM.
In the case of `CCc1ccccc1CNC(=O)n1[nH]c2ccccc2c1=O`, the IC50 is reported as 11.4 ± 5.17 nM.
`O=C(NCc1ccc2c(c1)OCO2)n1[nH]c2ccccc2c1=O` gave an IC50 of 45.1 ± 27.5 nM.
